Reference: patent US6641571B2, “Reduction of postoperative complications of cardiopulmonary bypass (CPB) surgery” (Ed. Geistlich Soehne AG fuer Chemische Industrie, priority 2000, dated 2003)

Experiments:
Type in all cases: in vivo, human
IL-10 = experiment: Randomized clinical trial in CPB patients: IL-10 level by ELISA
Experimental: (§1) A randomized prospective clinical trial was performed. Thirty-four consecutive patients with an ejection fraction >30%, undergoing elective coronary artery bypass grafting were randomized into four groups. Groups A and B received taurolidine (250 mL 2% taurolidine) intravenously at induction through a central line. These patients also received two further doses of taurolidine at 12 hour intervals (2×250 mL 2% taurolidine/day) for the first 24 hours following surgery, but in group A crystalloid cardioplegia was used for myocardial protection and in group B blood cardioplegia was used. Groups C and D received saline vehicle controls while group C had crystalloid cardioplegia and group D received blood cardioplegia. Blood samples were taken pre-operatively, at the time of aortic unclamping, 2 hours, 6 hours and 24 hours post aortic unclamping. Neutrophil and monocyte respiratory burst, phagocytosis ability, CD11b and CD14 expression were assessed using flow cytometry. Plasma interleukins 6, 8 and 10 (IL-6, IL-8 and IL-10) and tumor necrosis factor α (TNF-α) were determined by Enzyme Linked Immuno Sorbent Assay. All the patients received the standard antibiotic prophylaxis for cardiac bypass surgery.
(§2) Patient selection was performed as follows. Patients undergoing elective coronary artery bypass grafting with an ejection fraction greater than or equal to 30%, no history of Diabetes mellitis and a normal chest x-ray were selected. Patients on ACE-inhibitors were not included in the study. The decision was made jointly by the consultant anesthetist and surgeon involved before inclusion in the study, and each patient was then randomized to drug or control. All the patients were nursed in the cardiac intensive care unit post operatively. Informed consent was sought from each patient before inclusion into the study.
(§3) Parameters 2-4 were assessed post aortic unclamping, 2 hours and 24 hours post-operatively.
(§4) Thirty-four patients were studied as described above.

IL-8 = experiment: Randomized clinical trial in CPB patients: circulating IL-8 by ELISA; conditions: perioperative taurolidine
Experimental: as §1
(§5) Patient selection was performed as follows. […]
as §3

TNF-α = experiment: Randomized clinical trial in CPB patients: circulating TNF-α by ELISA; conditions: perioperative taurolidine
Experimental: as §1, §5, §3

IL-6 = experiment: Randomized clinical trial in CPB patients: IL-6 level by ELISA
Experimental: as §1, §2, §3, §4

[1] = tested on: neutrophil and monocyte activity (respiratory burst, phagocytosis, CD11b, CD14); experiment: Randomized clinical trial in CPB patients: neutrophil and monocyte activity by flow cytometry; conditions: perioperative taurolidine
Experimental: as §1, §5, §3

[2] = tested on: arrhythmia in CPB patients; experiment: Arrhythmia in CPB patients during crystalloid cardioplegia; conditions: of ten patients; crystalloid cardioplegia with taurolidine 2% solution (placebo: 8 of ten)
Text: Ten patients underwent CPB using crystalloid cardioplegia with taurolidine 2% solution for myocardial protection. Another ten patients underwent CPB using crystalloid cardioplegia and a placebo for myocardial protection. Three of the patients treated with taurolidine experienced arrhythmia whereas 8 of the patients treated with placebo experienced arrhythmia.

[3] = 24 hours post aortic unclamping, crystalloid cardioplegia (Group A, n = 8), 250 mL 2% taurolidine i.v., mean ± s.d., *p < 0.05 vs. placebo
[4] = Group A vs. Group B, p<0.05 at 24 hours post aortic unclamping
[5] = crystalloid cardioplegia, Group A vs. Group C, 24 hour timepoint

## O=S1(=O)CCN(CN2CCS(=O)(=O)NC2)CN1 [Taurolidine, bis(1,1-dioxoperhydro-1,2,4-thiadiazin-4-yl)methane]
IL-10; [3]
  Serum IL-10 level: 28.2 ± 9.6* pg/mL
IL-10; [4]
  Interleukin-10, crystalloid vs. blood cardioplegia in taurolidine patients: significantly up-regulated
IL-10; [5]
  Interleukin-10 vs. placebo (in words): significantly up-regulated
IL-8
  Effect on circulating IL-8: did not appear to modify
TNF-α
  Effect on circulating TNF-α: did not appear to modify
IL-6; [3]
  Serum IL-6 level: 8.0 ± 1.4* pg/mL
IL-6; [4]
  Interleukin-6, crystalloid vs. blood cardioplegia in taurolidine patients: significantly down-regulated
IL-6; blood cardioplegia, Group B vs. Group D
  Effect on interleukin-6 in combination with blood cardioplegia: No beneficial effect
IL-6; [5]
  Interleukin-6 vs. placebo (in words): significantly down-regulated
[1]
  Effect on neutrophil or monocyte activity: did not appear to modify
[2]
  Number of patients who experienced arrhythmia: Three
